# System: PGY-sRNA-26
# Assay: In vivo delivery study of lipid-nucleic acid mixture (oral gavage, RT-qPCR of PGY-sRNA-26 in tissues)
# Design: species or system mouse
# Details: C57BL/6 mice, gavage, 100 μg lipid: 10 nmol PGY-sRNA-26, 12 hours; for delivery efficacy over each tissue and blood tested (broad-spectrum delivery): all tissues and blood tested; for oral delivery of single-stranded sRNA nucleic acids into mouse intestinal tissue: intestine
# Method: 10 nmol of small RNA (as shown in Table 2) was dissolved in 400 μl of DEPC-treated water in a glass tube, 10 μl of the corresponding lipid stock solution was added such that the lipid mass in the system was 100 μg. The mixture was mixed thoroughly, heated in a 90° C. water bath for 15 minutes, and then cooled naturally to obtain the lipid nucleic acid mixture of lipid and small RNA.
# C57BL/6 male mice, approximately 6 weeks old, weighing 20-24 g, were obtained from Beijing Vital River Laboratory Animal Technology Co., Ltd. The mice were housed in the SPF-grade animal facility at the Animal Center of the Institute of Basic Medical Sciences, Chinese Academy of Medical Sciences. The mice were fasted for 12 hours before gavage administration.
# The resultant lipid nucleic acid mixture was orally administered to each mouse at a dose of 100 μg lipid: 10 nmol single-stranded 3′-methylated small RNA PGY-sRNA-26.
# • 1) Blank group (n=4): mice were administered with 500 μl saline by gavage, this group served as a blank control; • 2) Free uptake group (n=4): mice were directly administered with small RNA PGY-sRNA-26 solution (10 nmol/mouse, 500 μl) by gavage, this group served as a negative control; • 3) Lipid-treated group (n=4): mice were administered with 500 μl lipid nucleic acid mixture prepared in step 2 by gavage.
# After 12 hours of gavage administration, 500 μl blood from the eyeball of each mouse was sampled, added to 1.5 ml Trizol Reagent LS (purchased from Invitrogen), thoroughly mixed for lysis. 3 ml of Trizol Reagent LSwas added to tissue samples and homogenized for complete lysis, wherein the sampled tissues include heart, liver, spleen, lung, kidney, stomach, intestine, brain, blood, femur. RNA was extracted from 1 ml of the blood or the tissue lysate following the steps below: • Centrifuge at 4° C., 12,000 rpm for 5 min, discard the precipitate, transfer Trizol to a new centrifuge tube; • Add chloroform at 200 μL chloroform/mL Trizol, shake well, stand at room temperature for 5 min; • Centrifuge at 4° C., 12,000 rpm for 15 min; • Take the upper aqueous phase to another centrifuge tube, add isopropanol at 0.4 mL isopropanol/mL Trizol, mix well, and stand at low temperature for 10-20 min; • Centrifuge at 4° C., 12,000 rpm for 15 min, discard the supernatant, RNA precipitated at the bottom of the tube; • Add 1 mL of 75% ethanol, gently shake the centrifuge tube, suspend the precipitate; • Centrifuge at 4° C., 12,000 rpm for 15 min, discard the supernatant, add 1 mL of 75% ethanol, gently shake the centrifuge tube, suspend the precipitate; • Centrifuge at 4° C., 12,000 rpm for 15 min, discard the supernatant, air-dry at room temperature, dissolve RNA samples in 50 μL RNase-free H2O, measure OD value to quantify RNA concentration. 3.3 Reverse Transcription of sRNA to cDNA:
# The reverse transcription system is as follows: Template RNA (200 ng/μL) 10 μL, 10×RT Buffer 2.0 μL, 25×dNTP Mix (100 mM) 0.8 μL, U6 RT stem-loop primer (10 μM) 2.0 μL, PGY-sRNA-26 RT stem-loop primer (10 μM) 2.0 μL, MultiScribe™ Reverse Transcriptase (50 U/μL) 1.0 μL, RNAse Inhibitor (40 U/μL) 1.0 μL, nuclease-free H2O 1.2 μL. After transient centrifugation, the reverse transcription system was placed in a PCR machine with the following reaction conditions: (1) 25° C., 10 min; (2) 37° C., 120 min; (3) 85° C., 5 min; (4) 4° C., stop reaction. After the reaction, add 20 μL RNAse-free ddH2O, adjust the final volume to 40 μL. The stem-loop primers used in this reverse transcription process were synthesized by Beijing Tianyi Huiyuan Biotechnology Co., Ltd. (U6 was used as a standard reference gene to calculate its relative expression, because U6 RT primer was used as a reference gene in relative quantification of RT-qPCR reactions for small RNA): […]
SMILES,delivery efficacy over each tissue and blood tested (broad-spectrum delivery),oral delivery of single-stranded sRNA nucleic acids into mouse blood,oral delivery of single-stranded sRNA nucleic acids into mouse brain tissue,oral delivery of single-stranded sRNA nucleic acids into mouse femur,oral delivery of single-stranded sRNA nucleic acids into mouse heart tissue,oral delivery of single-stranded sRNA nucleic acids into mouse intestinal tissue,oral delivery of single-stranded sRNA nucleic acids into mouse kidney tissue,oral delivery of single-stranded sRNA nucleic acids into mouse liver tissue,oral delivery of single-stranded sRNA nucleic acids into mouse lung tissue,oral delivery of single-stranded sRNA nucleic acids into mouse spleen tissue,oral delivery of single-stranded sRNA nucleic acids into mouse stomach tissue
C[C@H](/C=C/[C@H](C)C(C)(C)O)[C@H]1CC[C@H]2/C(=C/C=C3C[C@@H](O)C[C@H](O)C3)CCC[C@]12C [Lipid 545],exhibited the best delivery efficacy,can effectively orally deliver,can effectively orally deliver,can effectively orally deliver,can effectively orally deliver,can effectively orally deliver,can effectively orally deliver,can effectively orally deliver,can effectively orally deliver,can effectively orally deliver,can effectively orally deliver
C[C@]12CCC(=O)C=C1CC[C@@H]1[C@@H]2CC[C@@]2(C)[C@H]1CC[C@]2(C)O [Lipid 546],exhibited the best delivery efficacy,can effectively orally deliver,can effectively orally deliver,can effectively orally deliver,can effectively orally deliver,can effectively orally deliver,can effectively orally deliver,can effectively orally deliver,can effectively orally deliver,can effectively orally deliver,can effectively orally deliver
C[C@H]1C[C@@H]2[C@H]([C@@H](O)C[C@@]3(C)[C@H]2CC[C@]3(O)C(=O)CO)[C@@]2(C)C=CC(=O)C=C12 [Lipid 547],exhibited the best delivery efficacy,can effectively orally deliver,,can effectively orally deliver,can effectively orally deliver,can effectively orally deliver,can effectively orally deliver,can effectively orally deliver,can effectively orally deliver,can effectively orally deliver,can effectively orally deliver
"C[C@]12CC[C@H](O)C[C@@H]1CC[C@@H]1[C@@H]2CC[C@]2(C)[C@@H](O)CC[C@@H]12 [Lipid 548, 5α-androstanediol (3S,5S,8R,9S,10S,13S,14S,17S)-10,13-dimethyl-2,3,4,5,6,7,8,9,11,12,14,15,16,17-tetradecahydro-1H-cyclopenta[a]phenanthrene-3,17-diol]",exhibited the best delivery efficacy,can effectively orally deliver,can effectively orally deliver,can effectively orally deliver,can effectively orally deliver,can effectively orally deliver,can effectively orally deliver,can effectively orally deliver,can effectively orally deliver,can effectively orally deliver,can effectively orally deliver
C[C@]12CCC(=O)C=C1CC[C@@H]1[C@@H]2CC[C@@]2(C)[C@H]1CC[C@]2(O)C(=O)CO [Lipid 549],exhibited the best delivery efficacy,can effectively orally deliver,can effectively orally deliver,can effectively orally deliver,can effectively orally deliver,can effectively orally deliver,can effectively orally deliver,can effectively orally deliver,can effectively orally deliver,can effectively orally deliver,can effectively orally deliver
C[C@@H]1O[C@@H](O[C@H]2C[C@@H](O)[C@]3(CO)[C@H]4[C@H](O)C[C@]5(C)[C@@H](C6=CC(=O)OC6)CC[C@]5(O)[C@@H]4CC[C@]3(O)C2)[C@H](O)[C@H](O)[C@H]1O [Lipid 550],exhibited the best delivery efficacy,can effectively orally deliver,can effectively orally deliver,can effectively orally deliver,can effectively orally deliver,can effectively orally deliver,can effectively orally deliver,can effectively orally deliver,can effectively orally deliver,can effectively orally deliver,can effectively orally deliver
